Measured values published in publication PMC8225905, “Activation and detoxification of cassava cyanogenic glucosides by the whitefly Bemisia tabaci” (Scientific Reports, 2021).

Test system: T1, BtSUC5
T1 construct: full-length ORF expressed in Drosophila S2 cells; secreted protein fraction (culture supernatant) assayed
Assay: LC-MS transglucosidation assay, S2 cell culture supernatant
Format: biochemical, Bemisia tabaci
Settings: 1 M sucrose as glucosyl donor; phosphate buffer pH 7.0; 25 °C; 30 min; glucosyl acceptor

CC(C)(C#N)O[C@@H]1O[C@H](CO)[C@@H](O)[C@H](O)[C@H]1O [linamarin]
Km: ~500 µM
